Results as given in paper PMC5715351, “Cysteine and histidine residues are involved in Escherichia coli Tn21 MerE methylmercury transport” (FEBS Open Bio, 2017).

Target: MerE (Shigella flexneri, UniProt Q7AKA4)
Details: 5 uM compound, LB broth with 100 ug/mL chloramphenicol and 100 uM EDTA, 37 °C

Chain of MerE (Q7AKA4 whole entry): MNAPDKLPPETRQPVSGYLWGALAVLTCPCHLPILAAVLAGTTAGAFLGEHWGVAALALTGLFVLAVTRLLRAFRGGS

In the case of `[CH3][Hg][Cl]` [CH3Hg(I)], the “uptake of 14C-labelled compound by E. coli XL1-Blue cells, filtration and scinti” value is reported as “cells with pE4 took up significantly more CH3Hg(I) than control cells”.
